Key:
human EGFR = human EGFR (Homo sapiens (Human), UniProt P00533); assay: EGFR LANTHASCREEN Eu Kinase Binding Assay; details: IC50 value ± standard deviation; truncated GST-labeled EGFR, kinase tracer 199; read-out: hEGFR Rel IC50
Description: (§1) BTK and EGFR in Vitro Assays:
(§2) The BTK and EGFR biochemical assays utilize LANTHASCREEN® Eu Kinase Binding Assays from Thermo Fisher Scientific, measuring the binding of the kinase with a […] tracer. The assay buffer consists of 50 mM HEPES pH 7.5, 0.01% BRU™-35, 10 mM MgCl2, 1 mM EGTA, and 1 mM DTT. The test compounds are diluted and added to the assay plate with a Labcyte ECHO® 555 liquid handler. The compounds are tested in 10 point dose response curves (100 μM-0.005 μM) with a maximum DMSO concentration of 1%. The assays are performed in 20 μL in low-volume 384-well white proxiplates. For the BTK assay, the concentration of full-length His-labeled BTK in the assay is 5 nM, the Eu-anti-His antibody is 2 nM, and the kinase tracer 236 is 60 nM. For the EGFR assay, the concentration of truncated (amino acids 668-1210) GST-labeled EGFR is 5 nM, the Eu-anti-GST antibody is 2 nM, and the kinase tracer 199 is 10 nM. The components of the assay (compound, enzyme/antibody, tracer) are assembled and incubated for 30 min prior to being read on a Perkin-Elmer EnVision with excitation at 340 nm, tracer emission at 665 nm, and antibody emission at 615 nm. The signal ratio is converted to percent inhibition using the following equation: % Inhibition=100−[(Test Compound−Median Minimum)/(Median Maximum−Median Minimum)×100].

human BTK = human BTK (Homo sapiens (Human), UniProt Q06187); assay: BTK LANTHASCREEN Eu Kinase Binding Assay; details: IC50 value ± standard deviation; full-length His-labeled BTK, kinase tracer 236; read-out: hBTK Rel IC50
Sequence of human BTK (Q06187 whole entry): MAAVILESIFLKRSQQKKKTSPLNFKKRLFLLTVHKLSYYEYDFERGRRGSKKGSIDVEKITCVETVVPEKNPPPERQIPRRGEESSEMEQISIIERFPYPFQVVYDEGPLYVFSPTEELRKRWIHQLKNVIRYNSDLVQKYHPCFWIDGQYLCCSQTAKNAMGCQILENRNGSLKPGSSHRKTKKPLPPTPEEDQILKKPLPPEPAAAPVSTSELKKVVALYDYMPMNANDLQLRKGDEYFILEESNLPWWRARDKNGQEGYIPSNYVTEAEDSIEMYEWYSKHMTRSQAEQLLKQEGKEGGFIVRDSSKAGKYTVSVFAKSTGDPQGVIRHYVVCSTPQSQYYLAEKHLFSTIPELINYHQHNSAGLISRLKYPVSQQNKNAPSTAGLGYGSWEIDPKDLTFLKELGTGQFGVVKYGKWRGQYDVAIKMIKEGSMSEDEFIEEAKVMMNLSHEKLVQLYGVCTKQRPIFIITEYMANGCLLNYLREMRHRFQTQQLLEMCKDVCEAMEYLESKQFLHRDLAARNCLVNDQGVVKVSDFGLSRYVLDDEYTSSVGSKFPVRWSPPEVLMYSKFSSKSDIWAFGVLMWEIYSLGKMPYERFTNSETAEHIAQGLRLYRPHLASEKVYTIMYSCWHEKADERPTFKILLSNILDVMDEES
Description: as §1, §2
(§3) The following Table 1 and Table 2 describes the relative IC50 data vs. human BTK, human EGFR, and human whole blood CD69.

[1] = tested on: activated B cells in human whole blood (CD69); assay: Human Whole Blood CD69 in vitro assay (B cell activation, flow cytometry); format: cell-based; details: IC50 value ± standard deviation, anti-human-IgD-Dextran stimulation, read-out: HWB CD69 Rel IC50
Description: Human Whole Blood CD69 in Vitro Assay:
The HWB CD69 assay measures activated B cells in human whole blood using a flow cytometer. Compounds are diluted and added to assay plates with a Labcyte ECHO® 555 liquid handler. Compounds are tested in 10 point dose response curves (20 μM-0.001 μM) in 96-well v-bottom plates with a maximum DMSO concentration of 0.2%. Fresh blood from individual healthy volunteer is mixed with HEPES (0.5 ml HEPES added per 10 ml blood) and 100 μl/well is added to compound plates. The plates are sealed and incubated in a 37° C. incubator for 3 h. Anti-human-IgD-Dextran is added to each well to give a final concentration of 100 ng/ml, mixed, and put back into the incubator. After 1 h, the cells are washed with cold FACS buffer and transferred to a deep well plate. The cells are incubated with anti-human CD69-PE (BIOLEGEND®, clone FN50) and anti-human CD19-APC (BIOLEGEND®, clone HIB19) antibodies on ice for 20 min. The cells are washed and incubated in eBioscience™ 1-step Fix/Lyse solution (10×) at RT to lyse the red blood cells and fix the other cells. The white cells are pelleted and washed in FACS buffer and then brought up in read buffer. The suspended cells are transferred to 96-well round bottom plates and read on an IntelliCyt iQue® Screener Plus flow cytometer. From the SSC (Side Scatter Channel) vs FSC (Forward Scatter Channel) graph, the lymphocytes are identified. Lymphocytes are identified with gated on positive CD19 marker for quantify CD69 (a marker of activated B lymphocytes) MFI (mean fluorescent intensity/cell). The signal ratio is converted to percent inhibition using the following equation: % Inhibition=100−[(Test Compound−Median Min)/(Median Max−Median Min)×100].
as §3

Sequence of human EGFR (P00533 668-1210): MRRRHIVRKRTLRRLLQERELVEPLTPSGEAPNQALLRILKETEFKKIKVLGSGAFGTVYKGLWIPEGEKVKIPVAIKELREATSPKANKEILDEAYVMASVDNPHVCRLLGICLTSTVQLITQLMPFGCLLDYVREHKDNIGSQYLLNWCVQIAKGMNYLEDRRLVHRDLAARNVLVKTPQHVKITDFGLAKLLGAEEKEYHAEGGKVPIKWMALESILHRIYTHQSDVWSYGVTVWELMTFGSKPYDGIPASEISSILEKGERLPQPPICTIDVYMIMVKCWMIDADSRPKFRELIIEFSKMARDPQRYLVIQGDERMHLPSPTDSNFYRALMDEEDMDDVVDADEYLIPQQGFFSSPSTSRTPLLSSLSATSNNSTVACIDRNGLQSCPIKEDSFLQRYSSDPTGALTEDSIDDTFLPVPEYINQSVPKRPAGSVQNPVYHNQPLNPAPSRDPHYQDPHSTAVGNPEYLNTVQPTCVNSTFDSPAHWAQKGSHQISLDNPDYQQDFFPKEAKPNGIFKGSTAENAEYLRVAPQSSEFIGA

Row | Compound | IC50 (human EGFR) [nM] | IC50 (human BTK) [nM] | IC50 [1] [nM]
1 | C=CC(=O)N1C[C@@H](Nc2cncc(-c3cnc(Oc4cccc(Cl)c4)nc3)n2)[C@@H]1C (single isomer, unassigned; isomer 1) [Example 32] | 194 ± 47.9 | 6.88 ± 1.37 | 135 ± 66.5
2 | C=CC(=O)N1CC(Nc2cncc(-c3cnc(Oc4cccc(Cl)c4F)nc3)c2)C1 [Example 2, 1-[3-[[5-[2-(3-chloro-2-fluoro-phenoxy)pyrimidin-5-yl]-3-pyridyl]amino]azetidin-1-yl]prop-2-en-1-one] | 121 ± 66.4 | 6.89 ± 2.62 | 141 ± 41.3
3 | C=CC(=O)N1CC(Nc2cncc(-c3cnc(Oc4cccc(C#N)c4)nc3)c2)C1 [Example 3, 3-[5-[5-[(1-prop-2-enoylazetidin-3-yl)amino]-3-pyridyl]pyrimidin-2-yl]oxybenzonitrile] |  |  | 595 ± 326
4 | C=CC(=O)N1CC(Nc2cncc(-c3cnc(Oc4cccc(OC(F)F)c4)nc3)c2)C1 [Example 4, 1-[3-[[5-[2-[3-(difluoromethoxy)phenoxy]pyrimidin-5-yl]-3-pyridyl]amino]azetidin-1-yl]prop-2-en-1-one] | 872 ± 456 | 9.98 ± 4.3 | 110 ± 79.4
5 | C=CC(=O)N1CC[C@H](Nc2cncc(-c3cnc(Oc4cccc(Cl)c4)nc3)c2)C1 [Example 6, 1-[(3S)-3-[[5-[2-(3-chlorophenoxy)pyrimidin-5-yl]-3-pyridyl]amino]pyrrolidin-1-yl]prop-2-en-1-one] | 5180 ± 441 | 72.4 ± 4.22 | 671 ± 236
6 | C=CC(=O)N1CC(Nc2cncc(-c3cnc(Oc4cccc(Cl)c4)nc3)c2)C1 [Example 7, 1-[3-[[5-[2-(3-chlorophenoxy)pyrimidin-5-yl]-3-pyridyl]amino]azetidin-1-yl]prop-2-en-1-one] | 129 ± 55.3 | 9.73 ± 2.01 | 180 ± 46
7 | C=CC(=O)N1CC(Nc2cncc(-c3cnc(Oc4cccc(C(F)(F)F)c4)nc3)c2)C1 [Example 8, 1-[3-[[5-[2-[3-(trifluoromethyl)phenoxy]pyrimidin-5-yl]-3-pyridyl]amino]azetidin-1-yl]prop-2-en-1-one] | 724 ± 375 | 23.1 ± 0.0341 | 239 ± 34.5
8 | C=CC(=O)N1CC(Nc2cncc(-c3cnc(Oc4ccc(F)c(OC(F)F)c4)nc3)c2)C1 [Example 9, 1-[3-[[5-[2-[3-(difluoromethoxy)-4-fluoro-phenoxy]pyrimidin-5-yl]-3-pyridyl]amino]azetidin-1-yl]prop-2-en-1-one] | 3760 ± 1400 | 60.6 ± 0.351 | 655 ± 295
9 | C=CC(=O)N1CC(Nc2cncc(-c3cnc(Oc4cccc(OC(F)(F)F)c4)nc3)c2)C1 [Example 10, 1-[3-[[5-[2-[3-(trifluoromethoxy)phenoxy]pyrimidin-5-yl]-3-pyridyl]amino]azetidin-1-yl]prop-2-en-1-one] |  | 34.5 ± 8.08 | 263 ± 129
10 | C=CC(=O)N1CC(Nc2cncc(-c3cnc(Oc4cccc(F)c4)nc3)c2)C1 [Example 11, 1-[3-[[5-[2-(3-fluorophenoxy)pyrimidin-5-yl]-3-pyridyl]amino]azetidin-1-yl]prop-2-en-1-one] | 644 ± 61.8 | 18.1 ± 3.05 | 242 ± 91.2
11 | C=CC(=O)N1CC(C)(Nc2cncc(-c3cnc(Oc4cccc(Cl)c4)nc3)c2)C1 [Example 12, 1-[3-[[5-[2-(3-chlorophenoxy)pyrimidin-5-yl]-3-pyridyl]amino]-3-methyl-azetidin-1-yl]prop-2-en-1-one] | 509 ± 246 | 6.95 ± 0.395 | 200 ± 52.4
12 | C=CC(=O)N1CC(Nc2cncc(-c3cnc(Oc4ccc(F)c(Cl)c4)nc3)c2)C1 [Example 13, 1-[3-[[5-[2-(3-chloro-4-fluoro-phenoxy)pyrimidin-5-yl]-3-pyridyl]amino]azetidin-1-yl]prop-2-en-1-one] | 450 ± 53.2 | 38.2 ± 16.9 | 715 ± 93.5
13 | C#Cc1cccc(Oc2ncc(-c3cncc(NC4CN(C(=O)C=C)C4)c3)cn2)c1 [Example 14, 1-[3-[[5-[2-(3-ethynylphenoxy)pyrimidin-5-yl]-3-pyridyl]amino]azetidin-1-yl]prop-2-en-1-one] | 242 ± 231 | 17.8 ± 3.77 | 299 ± 143
14 | C=CC(=O)N1CC[C@H](Nc2cncc(-c3cnc(Nc4cccc(Cl)c4)nc3)c2)C1 [Example 15] | 1370 ± 1210 | 6.01 ± 0.579 | 219 ± 86
15 | C=CC(=O)N1CC[C@H](Nc2cncc(-c3cnc(Nc4cccc(OC(F)F)c4)nc3)c2)C1 [Example 16, (S)-1-(3-((5-(2-((3-(difluoromethoxy)phenyl)amino)pyrimidin-5-yl)pyridin-3-yl)amino)pyrrolidin-1-yl)prop-2-en-1-one] |  |  | 118 ± 56
16 | C=CC(=O)N1CC[C@H](Nc2cncc(-c3cnc(Nc4cccc(C)n4)nc3)c2)C1 [Example 17, 1-{(3S)-3-[(5-{2-[(6-methylpyridin-2-yl)amino]pyrimidin-5-yl}pyridin-3-yl)amino]pyrrolidin-1-yl}prop-2-en-1-one] |  |  | 242 ± 64.3
17 | C=CC(=O)N1CC(Nc2cncc(-c3cnc(Nc4cccc(C(F)(F)F)c4)nc3)c2)C1 [Example 18, 1-[3-[[5-[2-[3-(trifluoromethyl)anilino]pyrimidin-5-yl]-3-pyridyl]amino]azetidin-1-yl]prop-2-en-1-one] | 247 ± 99.3 | < 5 | 71 ± 12.8
18 | C=CC(=O)N1CCC(Nc2cncc(-c3cnc(Nc4cccc(C)n4)nc3)c2)CC1 [Example 20, 1-[4-[[5-[2-[(6-methyl-2-pyridyl)amino]pyrimidin-5-yl]-3-pyridyl]amino]-1-piperidyl]prop-2-en-1-one] | 2220 ± 649 | 16.9 ± 3.93 | 208 ± 132
19 | C=CC(=O)N1CCC(Nc2cncc(-c3cnc(Nc4cccc(C(F)(F)F)n4)nc3)c2)CC1 [Example 21, 1-[4-[[5-[2-[[6-(trifluoromethyl)-2-pyridyl]amino]pyrimidin-5-yl]-3-pyridyl]amino]-1-piperidyl]prop-2-en-1-one] | > 100000 | 8.84 ± 1.21 | 160 ± 38.2
20 | C=CC(=O)N1CCC(Nc2cncc(-c3cnc(Nc4ccccn4)nc3)c2)CC1 [Example 22, 1-[4-[[5-[2-(2-pyridylamino)pyrimidin-5-yl]-3-pyridyl]amino]-1-piperidyl]prop-2-en-1-one] | 3390 ± 2070 | 31 ± 12.4 | 227 ± 81.1
21 | CN(C)C/C=C/C(=O)N1CCC(Nc2cncc(-c3cnc(Nc4cccc(Cl)c4)nc3)c2)CC1 [Example 23, (E)-1-[4-[[5-[2-(3-chloroanilino)pyrimidin-5-yl]-3-pyridyl]amino]-1-piperidyl]-4-(dimethylamino)but-2-en-1-one] | 26500 ± 2880 | 24.1 ± 4.28 | 475 ± 166
22 | C=CC(=O)N1CC(Nc2cncc(-c3cnc(Oc4cccc(F)c4)nc3)n2)C1 [Example 25, 1-[3-[[6-[2-(3-fluorophenoxy)pyrimidin-5-yl]pyrazin-2-yl]amino]azetidin-1-yl]prop-2-en-1-one] | 1580 ± 110 | 19.3 ± 3.28 | 306 ± 63.6
23 | C=CC(=O)N1CC(Nc2cncc(-c3cnc(Oc4cccc(C(F)(F)F)c4)nc3)n2)C1 [Example 26, 1-[3-[[6-[2-[3-(trifluoromethyl)phenoxy]pyrimidin-5-yl]pyrazin-2-yl]amino]azetidin-1-yl]prop-2-en-1-one] | 4030 ± 1920 | 30.2 ± 4.32 | 490 ± 255
24 | C=CC(=O)N1CC(Nc2cncc(-c3cnc(Oc4ccccc4)nc3)n2)C1 [Example 28, 1-[3-[[6-(2-phenoxypyrimidin-5-yl)pyrazin-2-yl]amino]azetidin-1-yl]prop-2-en-1-one] | 1470 ± 209 | 42.9 ± 5.09 | 742 ± 323

Source: US11542249B2, “BTK inhibitor compounds” (Eli Lilly and Company, priority 2017, dated 2023)
